Reference: patent publication US10899759B2, “Positive allosteric modulators of the muscarinic acetylcholine receptor M1” (Vanderbilt University, priority 2016, dated 2021)

Biological target: T1, human mAChR M1 (Homo sapiens, UniProt P11229)
T1 construct: host or cells: CHO-K1
T1 sequence (P11229 1-460): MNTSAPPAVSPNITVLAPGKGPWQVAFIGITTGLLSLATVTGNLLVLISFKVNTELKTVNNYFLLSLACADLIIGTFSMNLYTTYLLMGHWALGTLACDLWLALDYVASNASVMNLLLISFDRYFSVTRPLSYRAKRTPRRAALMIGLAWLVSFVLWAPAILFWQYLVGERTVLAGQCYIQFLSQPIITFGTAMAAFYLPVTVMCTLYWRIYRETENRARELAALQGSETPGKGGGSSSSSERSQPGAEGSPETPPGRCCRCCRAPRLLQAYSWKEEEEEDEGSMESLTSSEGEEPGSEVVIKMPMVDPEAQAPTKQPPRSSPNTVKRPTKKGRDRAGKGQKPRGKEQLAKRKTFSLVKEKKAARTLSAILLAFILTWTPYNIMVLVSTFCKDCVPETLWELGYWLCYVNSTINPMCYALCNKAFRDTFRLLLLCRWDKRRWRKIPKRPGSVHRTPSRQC
Test: mAChR M1 cell-based functional assay (calcium mobilization, Fluo-4, FDSS)
Details: CHO-K1 cells stably expressing hM1; for Emax: EC20 acetylcholine response, read-out: Human M1 Emax; for EC50: positive allosteric modulator activity as increase in the EC20 acetylcholine response
Protocol: Chinese hamster ovary (CHO-K1) cells stably expressing rat (r)M1 were purchased from the American Type Culture Collection and cultured according to their indicated protocol. […] To make stable rM2, hM2, rM3, hM4, and rM4 cell lines for use in calcium mobilization assays, these cells also were stably transfected with a chimeric G-protein (Gqi5) (provided by B. R. Conklin, University of California, San Francisco) using Lipofectamine 2000. rM1, hM1, rM3, hM3, rM5, and hM5 cells were grown in Ham's F-12 medium containing 10% heat-inactivated fetal bovine serum (FBS), 20 mM HEPES, and 50 μg/mL G418 sulfate. rM2-Gqi5, hM2-Gqi5, and hM4-Gqi5 cells were grown in the same medium also containing 500 μg/mL Hygromycin B. Stable rM4-Gqi5 cells were grown in DMEM containing 10% heat-inactivated FBS, 20 mM HEPES, 400 μg/mL G418 sulfate, and 500 μg/mL Hygromycin B.
For high throughput measurement of agonist-evoked increases in intracellular calcium, CHO-K1 cells stably expressing muscarinic receptors were plated in growth medium lacking G418 and hygromycin at 15,000 cells/20 μL/well in Greiner 384-well black-walled, tissue culture (TC)-treated, clear-bottom plates (VWR). Cells were incubated overnight at 37° C. and 5% CO2. […] Compound master plates were formatted in an 11 point CRC format (1:3 dilutions) in 100% DMSO with a starting concentration of 10 mM using the BRAVO liquid handler (Agilent). Test compound CRCs were then transferred to daughter plates (240 nL) using the Echo acoustic plate reformatter (Labcyte, Sunnyvale, Calif.) and then diluted into assay buffer (40 μL) to a 2× stock using a Thermo Fisher Combi (Thermo Fisher Scientific, Waltham, Mass.).
Calcium flux was measured using the Functional Drug Screening System (FDSS) 6000 (Hamamatsu Corporation, Tokyo, Japan) as an increase in the fluorescent static ratio. Compounds were applied to cells (20 μL, 2×) using the automated system of the FDSS 6000 at 4 s into the 300 s protocol and the data were collected at 1 Hz. […] Agonist activity was analyzed as a concentration-dependent increase in calcium mobilization upon compound addition. Positive allosteric modulator activity was analyzed as a concentration-dependent increase in the EC20 acetylcholine response. Antagonist activity was analyzed as a concentration-dependent decrease in the EC80 acetylcholine response. Concentration-response curves were generated using a four-parameter logistical equation in XLfit curve fitting software (IDBS, Bridgewater, N.J.) for Excel (Microsoft, Redmond, Wash.) or Prism (GraphPad Software, Inc., San Diego, Calif.).
The compound numbers correspond to the compound numbers used in Table 1.

Compound	Emax [%]	EC50 [nM]
Cc1nc(-c2ccc(Cc3cc(C(=O)NC4(C)COC4)nc4sccc34)cc2)co1 [Compound 140, 4-[[4-(2-methyloxazol-4-yl)phenyl]methyl]-N-(3-methyloxetan-3-yl)thieno[2,3-b]pyridine-6-carboxamide]	59.2	240
Cn1cc(-c2ccc(Cc3cc(C(=O)NC4CC(F)(F)C4)nc4sccc34)cn2)cn1 [Compound 126, N-(3,3-difluorocyclobutyl)-4-[[6-(1-methylpyrazol-4-yl)-3-pyridyl]methyl]thieno[2,3-b]pyridine-6-carboxamide]	63.4	270
O=C(NC1CC(F)C1)c1cc(Cc2ccc(-n3cccn3)cc2)c2ccsc2n1 (stereo not drawn) [Compound 82]	69.6	2090
COCCNC(=O)c1cc(Cc2ccc(-c3ccn(C)n3)nc2)c2ccsc2n1 [Compound 111, N-(2-methoxyethyl)-4-[[6-(1-methylpyrazol-3-yl)-3-pyridyl]methyl]thieno[2,3-b]pyridine-6-carboxamide]	63.2	370
Cn1ccc(-c2ccc(Cc3cc(C(=O)NC4CCOC(C)(C)C4)nc4c3ccn4C)cn2)n1 (stereo not drawn) [Compound 146, N-(2,2-dimethyltetrahydropyran-4-yl)-1-methyl-4-[[6-(1-methylpyrazol-3-yl)-3-pyridyl]methyl]pyrrolo[2,3-b]pyridine-6-carboxamide]	79.3	520
COCC(C)NC(=O)c1cc(Cc2ccc(-c3ccn(C)n3)nc2)c2ccsc2n1 (stereo not drawn) [Compound 112, N-(2-methoxy-1-methyl-ethyl)-4-[[6-(1-methylpyrazol-3-yl)-3-pyridyl]methyl]thieno[2,3-b]pyridine-6-carboxamide]	59.5	390
Cn1ccc2c(Cc3ccc(-n4cccn4)cc3)cc(C(=O)N[C@H]3CC[C@@H]3O)nc21 [Compound 20, N-[(1S,2S)-2-hydroxycyclobutyl]-1-methy1-4-[(4-pyrazol-1-ylphenyl)methyl]pyrrolo[2,3-b]pyridine-6-carboxamide]	73.3	390
Cc1nc(-c2ccc(Cc3cc(C(=O)NC4CCOCC4C)nc4sccc34)cc2)co1 (stereo not drawn) [Compound 134, 4-[[4-(2-methyloxazol-4-yl)phenyl]methyl]-N-(3-methyltetrahydropyran-4-yl)thieno[2,3-b]pyridine-6-carboxamide]	51.4	1220
Cc1nc(-c2ccc(Cc3cc(C(=O)NC4CC5(COC5)C4)nc4sccc34)cc2)co1 [Compound 139, 4-[[4-(2-methyloxazol-4-yl)phenyl]methyl]-N-(2-oxaspiro[3.3]heptan-6-yl)thieno[2,3-b]pyridine-6-carboxamide]	60.5	390
COCC(C)NC(=O)c1cc(Cc2ccc(-n3cccn3)cc2)c2ccsc2n1 (stereo not drawn) [Compound 86, N-(2-methoxy-1-methyl-ethyl)-4-[(4-pyrazol-1-ylphenyl)methyl]thieno[2,3-b]pyridine-6-carboxamide]	62	690
Cc1nc(-c2ccc(Cc3cc(C(=O)NC4CCOCC4(C)C)nc4sccc34)cc2)co1 (stereo not drawn) [Compound 133, N-(3,3-dimethyltetrahydropyran-4-yl)-4-[[4-(2-methyloxazol-4-yl)phenyl]methyl]thieno[2,3-b]pyridine-6-carboxamide]	62.3	2320
Cn1ccc(-c2ccc(Cc3cc(C(=O)NC4CC5(COC5)C4)nc4sccc34)cc2)n1 [Compound 96, 4-[[4-(1-methylpyrazol-3-yl)phenyl]methyl]-N-(2-oxaspiro[3.3]heptan-6-yl)thieno[2,3-b]pyridine-6-carboxamide]	69.9	280
Cn1ncc2c(Cc3ccc(-n4cccn4)cc3)cc(C(=O)NC3CCOCC3)nc21 [Compound 5, 1-methyl-4-[(4-pyrazol-1-ylphenyl)methyl]-N-tetrahydropyran-4-yl-pyrazolo[3,4-b]pyridine-6-carboxamide]	67.9	5940

Now those with a lower EC50, led by results:

Emax [%]	EC50 [nM]	Compound
71.2	230	Cn1ccc2c(Cc3ccc(-c4cscn4)cc3)cc(C(=O)NC3CCOCC3)nc21 [Compound 2, 1-methyl-N-tetrahydropyran-4-yl-4-[(4-thiazol-4-ylphenyl)methyl]pyrrolo[2,3-b]pyridine-6-carboxamide]
60.8	160	COCC(C)NC(=O)c1cc(Cc2ccc(-c3cnn(C)c3)nc2)c2ccsc2n1 (stereo not drawn) [Compound 128, N-(2-methoxy-1-methyl-ethyl)-4-[[6-(1-methylpyrazol-4-yl)-3-pyridyl]methyl]thieno[2,3-b]pyridine-6-carboxamide]
69.4	150	CCn1ccc2c(Cc3ccc(-n4cccn4)cc3)cc(C(=O)N[C@H]3CCC[C@@H]3O)nc21 [Compound 14, 1-ethyl-N-[(1S,2S)-2-hydroxycyclopentyl]-4-[(4-pyrazol-1-ylphenyl)methyl]pyrrolo[2,3-b]pyridine-6-carboxamide]
73.4	140	O=C(NC1CCOCC1)c1cc(Cc2ccc(-n3cccn3)cc2)c2ccsc2n1 [Compound 71, 4-[(4-pyrazol-1-ylphenyl)methyl]-N-tetrahydropyran-4-yl-thieno[2,3-b]pyridine-6-carboxamide]
87.1	140	Cn1cc(-c2ccc(Cc3cc(C(=O)NC4CC5(COC5)C4)nc4c3ccn4C)cn2)cn1 [Compound 48, 1-methyl-4-[[6-(1-methylpyrazol-4-yl)-3-pyridyl]methyl]-N-(2-oxaspiro[3.3]heptan-6-yl)pyrrolo[2,3-b]pyridine-6-carboxamide]
65.9	140	Cn1ccc(-c2ccc(Cc3cc(C(=O)NC4CC(F)C4)nc4sccc34)cc2)n1 (stereo not drawn) [Compound 97, N-(3-fluorocyclobutyl)-4-[[4-(1-methylpyrazol-3-yl)phenyl]methyl]thieno[2,3-b]pyridine-6-carboxamide]
68.7	110	Cn1ccc2c(Cc3ccc(-n4cccn4)cc3)cc(C(=O)NC3CC4(COC4)C3)nc21 [Compound 19, 1-methyl-N-(2-oxaspiro[3.3]heptan-6-yl)-4-[(4-pyrazol-1-ylphenyl)methyl]pyrrolo[2,3-b]pyridine-6-carboxamide]
57.3	90	Cn1ccc(-c2ccc(Cc3cc(C(=O)NCC4CCOCC4)nc4sccc34)cn2)n1 [Compound 107, 4-[[6-(1-methylpyrazol-3-yl)-3-pyridyl]methyl]-N-(tetrahydropyran-4-ylmethyl)thieno[2,3-b]pyridine-6-carboxamide]
56.9	80	Cn1cc(-c2ccc(Cc3cc(C(=O)N[C@H]4CCOC4)nc4sccc34)cn2)cn1 [Compound 120, 4-[[6-(1-methylpyrazol-4-yl)-3-pyridyl]methyl]-N-[(3S)-tetrahydrofuran-3-yl]thieno[2,3-b]pyridine-6-carboxamide]
58.4	60	Cn1ccc(-c2ccc(Cc3cc(C(=O)NC4CC(F)C4)nc4sccc34)cn2)n1 (stereo not drawn) [Compound 110, N-(3-fluorocyclobutyl)-4-[[6-(1-methylpyrazol-3-yl)-3-pyridyl]methyl]thieno[2,3-b]pyridine-6-carboxamide]
52.9	30	O=C(N[C@H]1CCCC[C@@H]1O)c1cc(Cc2ccc(-n3cccn3)cc2)c2ccsc2n1 [Compound 69, N-[(1S,2S)-2-hydroxycyclohexyl]-4-[(4-pyrazol-1-ylphenyl)methyl]thieno[2,3-b]pyridine-6-carboxamide]
